From US8466191B2, “Pyrroline derivatives against cell releasing tumor necrosis factor, preparation methods and uses thereof” (priority 2006, dated 2013)

System: release of TNFα in peripheral blood mononuclear cells (PBMCs) stimulated by lipopolysaccharide (LPS)
Test: Inhibition of the release of TNFα in peripheral blood mononuclear cells (PBMCs) stimulated by lipopolysaccharide (LPS), ELISA
Format: cell-based, human
Details: 3 μM compound, PBMCs 1×10^6 cells/mL, 1 hour preincubation, LPS 0.1 μg/mL, 20 hours incubation, TNFα in supernatant by ELISA
Description: Pharmacological Research: Effects on the release of TNFα in peripheral blood mononuclear cells (PBMCs) stimulated by lipopolysaccharide (LPS) by compounds of the invention
Release of cytokine TNFα by PBMCs in the peripheral blood stimulated by lipid polysaccharide (LPS) was studied in vitro.
PBMCs collected from blood of at least three volunteers were pretreated with heparin by a gradient separation method, and washed three times with a 1640 culture medium (10% calf serum, 2 mM L-glutamine, […] mercaptoethanol, 50 μg/mL streptomycin, and 50 U/mL penicillin). The obtained PBMCs were then placed into a 24-well cell culture plate and the concentration was adjusted to 1×10^6 cells/mL with 1640 culture medium. The compounds to be tested were dissolved in dimethylsulfoxide to obtain a solution having a required concentration. The solution was added to the above-mentioned cell culture medium and cultured in an incubator (5% CO2, 90% humidity) for 1 hour. Then, LPS (Sigma) was added until the concentration reached 0.1 μg/mL (except for the control).
After 20 hours incubation, the content of TNFα in the supernatant of the PBMC culture medium was assayed using an ELISA kit (America Genzyme Co) by a standard method. The TNFα inhibition rate was calculated using values measured in the control well (not treated) and the test wells (treated with the compound to be tested). The concentration of compounds giving a 50% TNFα inhibition (IC50 value) was calculated using nonlinear regression analysis. Each concentration was determined twice and an average value was reported.

`COC(=O)CC(c1ccc(OC)c(OC)c1)N1C(=O)c2cscc2C1=O` (centres unmarked) [Example 1, methyl 3-(3,4-dimethoxy-phenyl)-3-(4,6-dioxo-4H-thiophene[3,4-c]pyrrole-5(6H)-yl)propionate] was tested, and the “Inhibition Rate (%)” value was 87.6%.
With `COC(=O)CCN1C(=O)c2cscc2C1=O` [Example 15, methyl 3-(4,6-Dioxo-4H-thiophene[3,4-c]pyrrole-5(6H)-yl)propionate] the “Inhibition Rate (%)” value was 40.9%.
`COC(=O)CCCN1C(=O)c2cscc2C1=O` [Example 16, methyl 4-(4,6-Dioxo-4H-thiophene[3,4-c]pyrrole-5(6H)-yl)butyrate] was tested, and the “Inhibition Rate (%)” value was 38.4%.
For `COC(=O)[C@H](c1ccccc1)N1C(=O)c2cscc2C1=O` [Example 17, L-methyl 2-(4,6-dioxo-4H-thiophene[3,4-c]pyrrole-5(6H)-yl)-2-phenylacetate], the “Inhibition Rate (%)” value was 83.5%.
For `COC(=O)[C@@H](c1ccccc1)N1C(=O)c2cscc2C1=O` [Example 18, D-methyl 2-(4,6-dioxo-4H-thiophene[3,4-c]pyrrole-5(6H)-yl)-2-phenylacetate], the “Inhibition Rate (%)” value was 84.1%.
`COC(=O)CC(c1ccc(OC)c(OC)c1)N1C(=O)c2csc(N)c2C1=O` (centres unmarked) [Example 23, methyl 3-(3,4-Dimethoxy-phenyl)-3-(1-amino-4,6-dioxo-4H-thiophene[3,4-c]pyrrole-5(6H)-yl)propionate] was tested, and the “Inhibition Rate (%)” value was 95.4%.
With `CCOc1ccc(C(CC(=O)OC)N2C(=O)c3csc(N)c3C2=O)cc1OC` (centres unmarked) [Example 26, methyl 3-(3-Methoxy-4-ethoxy-phenyl)-3-(1-amino-4,6-dioxo-4H-thiophene[3,4-c]pyrrole-5(6H)-yl)propionate] the “Inhibition Rate (%)” value was 93.6%.
In the case of `COC(=O)[C@H](c1ccccc1)N1C(=O)c2csc(N)c2C1=O` [Example 29, L-methyl 2-(1-amino-4,6-dioxo-4H-thiophene[3,4-c]pyrrole-5(6H)-yl)-2-phenylacetate], the “Inhibition Rate (%)” value is reported as 87.6%.
In the case of `COC(=O)[C@@H](c1ccccc1)N1C(=O)c2csc(N)c2C1=O` [Example 30, D-methyl 2-(1-amino-4,6-dioxo-4H-thiophene[3,4-c]pyrrole-5(6H)-yl)-2-phenylacetate], the “Inhibition Rate (%)” value is reported as 91.4%.
For `COC(=O)CC(c1ccc(OC)c(OC2CCCC2)c1)N1C(=O)c2csc(NC(C)=O)c2C1=O` (centres unmarked) [Example 31, methyl 3-(3-Cyclopentyloxy-4-methoxy-phenyl)-3-(1-acetylamino-4,6-dioxo-4H-thiophene[3,4-c]pyrrole-5(6H)-yl)propionate], the “Inhibition Rate (%)” value was 93.6%.
In the case of `CCOc1ccc(C(CC#N)N2C(=O)c3csc(N)c3C2=O)cc1OC` (centres unmarked) [Example 38, 3-(3-Methoxy-4-ethoxy-phenyl)-3-(1-amino-4,6-dioxo-4H-thiophene[3,4-c]pyrrole-5(6H)-yl)propionitrile], the “Inhibition Rate (%)” value is reported as 94.9%.
`COc1ccc(C(CC#N)N2C(=O)c3csc(N)c3C2=O)cc1OC` (centres unmarked) [Example 39, 3-(3,4-dimethoxy-phenyl)-3-(1-amino-4,6-dioxo-4H-thiophene[3,4-c]pyrrole-5(6H)-yl)propionitrile] was tested, and the “Inhibition Rate (%)” value was 93.4%.
`COc1cc(C(CC#N)N2C(=O)c3csc(N)c3C2=O)ccc1OCc1ccccc1` (centres unmarked) [Example 40, 3-(3-Methoxy-4-benzyloxyphenyl)-3-(1-amino-4,6-dioxo-4H-thiophene[3,4-c]pyrrole-5(6H)-yl)propionitrile] was tested, and the “Inhibition Rate (%)” value was 83.6%.
With `CCOc1cc(C(CC#N)N2C(=O)c3csc(N)c3C2=O)ccc1OC` (centres unmarked) [Example 41, 3-(3-Ethoxy-4-methoxy-phenyl)-3-(1-amino-4,6-dioxo-4H-thiophene[3,4-c]pyrrole-5(6H)-yl)propionitrile] the “Inhibition Rate (%)” value was 91.2%.
With `COc1ccc(C(CC#N)N2C(=O)c3csc(N)c3C2=O)cc1OC1CCCC1` (centres unmarked) [Example 42, 3-(3-Cyclopentyloxy-4-methoxy-phenyl)-3-(1-amino-4,6-dioxo-4H-thiophene[3,4-c]pyrrole-5(6H)-yl)propionitrile] the “Inhibition Rate (%)” value was 94.8%.
`COc1cc(C(CCN(C)C)N2C(=O)c3cscc3C2=O)ccc1OCc1ccccc1` (centres unmarked) [Example 54, 5-(1-(3-Methoxy-4-benzyloxyphenyl)-3-dimethylamino-propyl)-5H-thiophene[3,4-c]pyrrole-4,6-dione] was tested, and the “Inhibition Rate (%)” value was 41.4%.
`CCN(CC)CCC(c1ccc(OCc2ccccc2)c(OC)c1)N1C(=O)c2cscc2C1=O` (centres unmarked) [Example 55, 5-(1-(3-Methoxy-4-benzyloxyphenyl)-3-diethylamino-propyl)-5H-thiophene[3,4-c]pyrrole-4,6-dione] was tested, and the “Inhibition Rate (%)” value was 50.2%.
For `CCOc1ccc(C(CC(=O)O)N2C(=O)c3cscc3C2=O)cc1OC` (centres unmarked) [Example 58, 3-(3-Methoxy-4-ethoxy-phenyl)-3-(4,6-dioxo-4H-thiophene[3,4-c]pyrrole-5(6H)-yl)propionic acid], the “Inhibition Rate (%)” value was 20.7%.
For `CCOc1ccc(C(CC(=O)NO)N2C(=O)c3cscc3C2=O)cc1OC` (centres unmarked) [Example 59, 3-(3-Methoxy-4-ethoxy-phenyl)-3-(4,6-dioxo-4H-thiophene[3,4-c]pyrrole-5(6H)-yl)-N-hydroxy propionamide], the “Inhibition Rate (%)” value was 80%.
Work on `O=C1CCC(N2C(=O)c3ccccc3C2=O)C(=O)N1` (centres unmarked) [Thalidomide, reference compound] yielded an inhibition at 3 µM (Homo sapiens, PBMC, read-out: Inhibition Rate (%)) of 22%.
